{"source": "PubChem BioAssay AID743317", "about": "(Broad Institute, 2014)", "note": "Inconclusive results are not listed. Active and inactive are the calls of the source.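 Rule for the calls: active = fitted curve reaches 40% activation at or below the top valid dose, and every replicate test is called active; inconclusive = replicate tests disagree, some active and some inactive; inactive = all replicate tests inactive, including activity in the wrong direction.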"}
{"target": "Endoplasmic reticulum aminopeptidase 1 (Homo sapiens) (UniProt Q9NZ08)", "sequence (Q9NZ08 whole entry, looked up)": "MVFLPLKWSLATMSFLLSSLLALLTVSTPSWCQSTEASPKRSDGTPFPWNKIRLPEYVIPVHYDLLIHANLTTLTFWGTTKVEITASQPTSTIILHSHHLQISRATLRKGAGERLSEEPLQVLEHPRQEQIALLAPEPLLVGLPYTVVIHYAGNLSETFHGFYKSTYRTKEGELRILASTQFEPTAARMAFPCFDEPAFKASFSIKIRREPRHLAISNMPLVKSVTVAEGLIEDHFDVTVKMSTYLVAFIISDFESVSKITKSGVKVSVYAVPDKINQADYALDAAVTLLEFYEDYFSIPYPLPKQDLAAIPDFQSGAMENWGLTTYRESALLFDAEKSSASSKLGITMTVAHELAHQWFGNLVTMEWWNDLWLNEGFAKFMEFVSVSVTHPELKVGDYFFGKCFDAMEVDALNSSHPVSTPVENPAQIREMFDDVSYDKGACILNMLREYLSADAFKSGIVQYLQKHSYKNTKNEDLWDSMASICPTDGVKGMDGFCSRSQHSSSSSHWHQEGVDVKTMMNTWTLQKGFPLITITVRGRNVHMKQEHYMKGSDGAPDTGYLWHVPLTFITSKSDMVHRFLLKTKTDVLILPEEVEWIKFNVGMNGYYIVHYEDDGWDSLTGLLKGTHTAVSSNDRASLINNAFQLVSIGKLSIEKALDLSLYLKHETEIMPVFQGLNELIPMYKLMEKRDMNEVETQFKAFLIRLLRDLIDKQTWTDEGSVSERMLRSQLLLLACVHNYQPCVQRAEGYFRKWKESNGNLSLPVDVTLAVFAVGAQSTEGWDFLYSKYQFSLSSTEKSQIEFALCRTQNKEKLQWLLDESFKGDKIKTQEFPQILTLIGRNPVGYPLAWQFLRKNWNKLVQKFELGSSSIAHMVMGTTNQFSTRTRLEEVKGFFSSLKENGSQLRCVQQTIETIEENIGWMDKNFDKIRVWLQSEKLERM", "experiment": "ERAP1 aminopeptidase activity change, dose response, biochemical, fluorescence, cherry-pick (AID 743317)", "conditions": "ERAP1 enzyme, Leu-AMC fluorescence, 60 min", "units": {"AC40": "nM"}}
{"smiles": "C[C@@H]1CCCCO[C@@H](CN(C)C)[C@@H](C)CN([C@H](C)CO)C(=O)c2cc(NS(=O)(=O)c3ccc(Cl)cc3)ccc2O1", "AC40": 381}
{"smiles": "C[C@H](CO)N1C[C@H](C)[C@@H](CN(C)C)Oc2c(NC(=O)Nc3ccc(C(F)(F)F)cc3)cccc2C1=O", "AC40": 762}
{"smiles": "C[C@@H]1CCCCO[C@@H](CN(C)CC2CC2)[C@@H](C)CN([C@H](C)CO)C(=O)c2cc(NS(=O)(=O)c3ccc(Cl)cc3)ccc2O1", "AC40": 97.3}
{"smiles": "Cc1ccccc1-c1ccc2c(c1)O[C@@H](CN(C)Cc1ccc(C(=O)O)cc1)[C@@H](C)CN([C@H](C)CO)S2(=O)=O", "AC40": 4290}
{"smiles": "CO[C@@H]1CN(C)C(=O)c2ccc(NC(=O)Nc3cccc(Cl)c3)cc2OC[C@@H](C)NC[C@H]1C", "AC40": 1410}
{"smiles": "Cc1ccc(S(=O)(=O)c2cc3ccc(O)cc3oc2=O)cc1C", "AC40": 2990}
{"smiles": "C[C@H]1CN([C@@H](C)CO)C(=O)c2cccc(NC(=O)Nc3ccc(F)cc3)c2O[C@@H]1CN(C)C(=O)Nc1ccc2c(c1)OCO2", "AC40": 5560}
{"smiles": "COc1ccc(CNCc2c(O)c(Cl)cc3c(C)c(C)c(=O)oc23)c(OC)c1", "AC40": 2190}
{"smiles": "CCCN(C)C[C@@H]1OCCCC[C@@H](C)Oc2ccc(NS(=O)(=O)c3ccc(F)cc3)cc2C(=O)N([C@H](C)CO)C[C@@H]1C", "AC40": 3880}
{"smiles": "C[C@@H]1CCCCO[C@@H](CN(C)C(=O)CCC(F)(F)F)[C@@H](C)CN([C@@H](C)CO)C(=O)c2cc(NS(=O)(=O)c3ccccc3)ccc2O1", "AC40": 1730}
{"smiles": "O=C(Nc1ccc(C(F)(F)F)cc1)N1[C@@H]2CNC[C@H]1C2c1ccc(-c2ccncc2)cc1", "note": "(some centres not stated)", "AC40": 7230}
{"smiles": "CCCNC(=O)C[C@@H]1CC[C@@H]2[C@H](COC[C@H](O)CN2C(=O)Nc2cccc(Cl)c2)O1", "AC40": 6770}
{"smiles": "O=S(=O)(O)c1ccc(N2N=C(c3ccccc3)CC2c2ccccc2)cc1", "note": "(configuration not stated)", "AC40": 4310}
{"smiles": "COc1ccc(NC(=O)Nc2ccc3c(c2)C(=O)N([C@H](C)CO)C[C@@H](C)[C@H](CN(C)Cc2ccc(C(=O)O)cc2)OCCCC[C@@H](C)O3)cc1", "AC40": 3300}
{"smiles": "Cc1noc(C)c1S(=O)(=O)N(C)C[C@@H]1OCCCC[C@@H](C)Oc2ccc(NS(=O)(=O)c3cccs3)cc2C(=O)N([C@@H](C)CO)C[C@@H]1C", "AC40": "< 80"}
{"smiles": "C[C@@H]1CCCCO[C@@H](CN(C)C)[C@H](C)CN([C@@H](C)CO)C(=O)c2cc(NC(=O)Nc3ccc(C(F)(F)F)cc3)ccc2O1", "AC40": 516}
{"smiles": "Cc1ccc(-c2cc(C(=O)N3CCCC3)c3ccccc3n2)s1", "AC40": 6450}
{"smiles": "CNC[C@H]1Oc2c(NC(=O)Nc3ccc(C(F)(F)F)cc3)cccc2C(=O)N([C@@H](C)CO)C[C@@H]1C", "AC40": 646}
{"smiles": "COc1ccc(C2=NN(c3ccc(C(=O)O)cc3)C(c3ccc(OC)c(OC)c3)C2)cc1", "note": "(configuration not stated)", "AC40": 442}
{"smiles": "CC1CN(Cc2cc(=O)oc3cc(O)c(Cl)cc23)CC(C)O1", "note": "(configuration not stated)", "AC40": 3400}
{"smiles": "CC(=O)Oc1cc2oc(=O)cc(C)c2cc1Cl", "AC40": 1020}
{"smiles": "C[C@H](CO)N1C[C@H](C)[C@H](CN(C)C)Oc2c(NC(=O)Nc3ccc(C(F)(F)F)cc3)cccc2C1=O", "AC40": 935}
{"smiles": "C[C@H](CO)N1C[C@H](C)[C@@H](CN(C)CC2CC2)Oc2c(NC(=O)Nc3ccc(C(F)(F)F)cc3)cccc2C1=O", "AC40": 757}
{"smiles": "CCCN(C)C[C@@H]1OCCCC[C@@H](C)Oc2ccc(NS(=O)(=O)c3ccccc3)cc2C(=O)N([C@H](C)CO)C[C@@H]1C", "AC40": 1040}
{"smiles": "C[C@@H]1CCCCO[C@@H](CN(C)C)[C@@H](C)CN([C@@H](C)CO)C(=O)c2cc(NS(=O)(=O)c3ccc(Cl)cc3)ccc2O1", "AC40": 636}
{"smiles": "COc1ccc(CN(C)C[C@@H]2OCCCC[C@H](C)Oc3ccc(NS(=O)(=O)c4cccs4)cc3C(=O)N([C@@H](C)CO)C[C@@H]2C)cc1", "AC40": 1190}
{"smiles": "COc1ccc(CN(C)C[C@H]2OCCCC[C@@H](C)Oc3ccc(NS(=O)(=O)c4cccs4)cc3C(=O)N([C@H](C)CO)C[C@H]2C)cc1", "AC40": 1230}
{"smiles": "CCCNC(=O)C[C@H]1CC[C@@H]2[C@H](COC[C@H](O)CN2C(=O)Nc2cccc(Cl)c2)O1", "AC40": 3410}
{"smiles": "COc1cc2cc(C(=O)N3CCN(Cc4ccc5c(c4)OCO5)CC3)c(=O)oc2cc1OC", "AC40": 4580}
{"smiles": "C[C@@H]1CCCCO[C@@H](CN(C)C(=O)CCC(F)(F)F)[C@@H](C)CN([C@@H](C)CO)C(=O)c2cc(NS(=O)(=O)c3ccc(Cl)cc3)ccc2O1", "AC40": 191}
{"smiles": "C[C@@H]1CCCCO[C@@H](CN(C)Cc2ccc(C(=O)O)cc2)[C@H](C)CN([C@@H](C)CO)C(=O)c2cc(NS(=O)(=O)c3ccc(Cl)cc3)ccc2O1", "AC40": 3660}
{"smiles": "C[C@H](CO)N1C[C@H](C)[C@H](CN(C)CC2CCCCC2)Oc2c(NC(=O)Nc3ccc4c(c3)OCO4)cccc2C1=O", "AC40": 2550}
{"smiles": "O=c1cc(CN2CCOCC2)c2cc(Cl)c(O)cc2o1", "AC40": 4840}
{"smiles": "CCCN(C)C[C@@H]1OCCCC[C@@H](C)Oc2ccc(NS(=O)(=O)c3c(C)noc3C)cc2C(=O)N([C@H](C)CO)C[C@@H]1C", "AC40": 1240}
{"smiles": "O=C(C[C@@H]1CC[C@@H]2[C@H](COC[C@H](O)CN2C(=O)Nc2cccc(Cl)c2)O1)N1CCCCC1", "AC40": 364}
{"smiles": "CCCN(C)C[C@@H]1OCCCC[C@@H](C)Oc2ccc(NS(=O)(=O)c3ccc(C)cc3)cc2C(=O)N([C@H](C)CO)C[C@@H]1C", "AC40": 1420}
{"smiles": "C[C@H](CO)N1C[C@H](C)[C@H](CN(C)Cc2ccc(C(=O)O)cc2)Oc2c(NC(=O)Nc3ccccc3)cccc2C1=O", "AC40": 2460}
{"smiles": "COc1ccc(CN(C)C[C@H]2OCCCC[C@@H](C)Oc3ccc(NS(=O)(=O)c4cccs4)cc3C(=O)N([C@@H](C)CO)C[C@H]2C)cc1", "AC40": 1110}
{"smiles": "N#Cc1c(N)n(CCNC(=O)c2ccccc2)c2nc3ccccc3nc12", "AC40": 10000}
{"smiles": "COc1ccc(CN(C)C[C@@H]2OCCCC[C@@H](C)Oc3ccc(NS(=O)(=O)c4cccs4)cc3C(=O)N([C@H](C)CO)C[C@H]2C)cc1", "AC40": 1150}
{"smiles": "O=C(O)c1cccc(NC(=O)c2ccccc2NC(=O)c2cccc([N+](=O)[O-])c2)c1", "AC40": 967}
{"smiles": "CCN(CC)c1ccc2c(C)c(Cl)c(=O)oc2c1", "AC40": 8190}
{"smiles": "C[C@@H]1CCCCO[C@@H](CN(C)S(C)(=O)=O)[C@@H](C)CN([C@@H](C)CO)C(=O)c2cc(NS(=O)(=O)c3ccc(Cl)cc3)ccc2O1", "AC40": 266}
{"smiles": "COc1ccc(CN(C)C[C@@H]2OCCCC[C@@H](C)Oc3ccc(NS(=O)(=O)c4c(C)noc4C)cc3C(=O)N([C@@H](C)CO)C[C@@H]2C)cc1", "AC40": 1880}
{"smiles": "C[C@H]1CN([C@@H](C)CO)C(=O)c2cccc(NC(=O)Nc3ccc(C(F)(F)F)cc3)c2O[C@@H]1CN(C)CC1CC1", "AC40": 541}
{"smiles": "C[C@@H]1CCCCO[C@@H](CN(C)Cc2ccc(C(=O)O)cc2)[C@@H](C)CN([C@H](C)CO)C(=O)c2cc(NC(=O)Nc3cccc4ccccc34)ccc2O1", "AC40": 408}
{"smiles": "O=C(C[C@H]1CC[C@@H]2[C@H](COC[C@@H](O)CN2C(=O)Nc2cccc(Cl)c2)O1)N1CCCCC1", "AC40": 812}
{"smiles": "Cc1noc(C)c1NC(=O)Nc1ccc2c(c1)C(=O)N([C@H](C)CO)C[C@@H](C)[C@@H](CN(C)Cc1ccc(C(F)(F)F)cc1)OCCCC[C@@H](C)O2", "AC40": 2770}
{"target": "Endoplasmic reticulum aminopeptidase 1 (Homo sapiens) (UniProt Q9NZ08)", "experiment": "ERAP1 aminopeptidase activity change, dose response, biochemical, fluorescence, cherry-pick (AID 743317)", "conditions": "ERAP1 enzyme, Leu-AMC fluorescence, 60 min; at 5.6 µM (top of the series)"}
{"smiles": "O=c1ccc2cc(O[C@@H]3O[C@@H](CO)[C@H](O)[C@@H](O)[C@@H]3O)c(O)cc2o1", "activity increase (activation)": "-79.1% (inactive)"}
{"smiles": "O=c1ccc2cc(OC3O[C@H](CO)[C@@H](O)[C@H](O)[C@H]3O)c(O)cc2o1", "note": "(some centres not stated)", "activity increase (activation)": "-95.4% (inactive)"}
{"smiles": "CN1CCN(Cc2c(O)ccc3cc(-c4ccccn4)c(=O)oc23)CC1", "activity increase (activation)": "-103% (inactive)"}
{"smiles": "Cc1cc2nc(-c3ccc[nH]c3=O)[nH]c2cc1C", "activity increase (activation)": "-30.6% (inactive)"}
{"target": "Endoplasmic reticulum aminopeptidase 1 (Homo sapiens) (UniProt Q9NZ08)", "experiment": "ERAP1 aminopeptidase activity change, dose response, biochemical, fluorescence, cherry-pick (AID 743317)", "conditions": "ERAP1 enzyme, Leu-AMC fluorescence, 60 min; at 11 µM (top of the series)"}
{"smiles": "O=C(O)c1ccccc1NS(=O)(=O)c1cccc(-n2sc3ccccc3c2=O)c1", "activity increase (activation)": "-98.6% (inactive)"}
{"smiles": "CCN1CCN(Cc2c(O)ccc3c(C)cc(=O)oc23)CC1", "activity increase (activation)": "-54.6% (inactive)"}
{"smiles": "Cc1c(Cc2ccccc2)c(=O)oc2cc(O)ccc12", "activity increase (activation)": "-39.3% (inactive)"}
{"smiles": "CCN(CC)Cc1c(O)c(Cl)cc2c(C)cc(=O)oc12", "activity increase (activation)": "-83.4% (inactive)"}
{"smiles": "Cc1cc(=O)oc2c(CN3CCCCC3)c(O)ccc12", "activity increase (activation)": "-81.1% (inactive)"}
{"smiles": "CC(C)[C@@H](C(=O)N[C@@H](CCc1ccc(O)cc1)C(=O)O)N(C)C(=O)[C@H](CO)NC(=O)[C@@H](O)[C@H](N)CCCCCCCCl", "activity increase (activation)": "-103% (inactive)"}
{"smiles": "CC(C)(C)c1cc(N2CCOCC2)n2ncc(-c3ccccc3)c2n1", "activity increase (activation)": "-42% (inactive)"}
{"smiles": "Cc1cc(=O)oc2c(CN3CCCC3)c(O)c(Cl)cc12", "activity increase (activation)": "-73.8% (inactive)"}
{"smiles": "O=c1oc2cc(O)ccc2cc1S(=O)(=O)c1ccccc1", "activity increase (activation)": "349% (inactive)"}
{"smiles": "CCc1cc(=O)oc2c(CN3CCN(C)CC3)c(O)ccc12", "activity increase (activation)": "-65.3% (inactive)"}
{"smiles": "O=C(CSc1cn[nH]n1)Nc1cccc(C(=O)O)c1", "activity increase (activation)": "-63.3% (inactive)"}
{"smiles": "CCc1c(C)c2cc(Cl)c(O)c(CN(C)C)c2oc1=O", "activity increase (activation)": "-92.5% (inactive)"}
{"smiles": "Cc1cc(=O)oc2c(CN3CCCC3)c(O)ccc12", "activity increase (activation)": "-44% (inactive)"}
{"smiles": "O=S(=O)(c1ccc(N2CCC(c3ccc(Cl)cc3)=N2)cc1)N(CCO)CCO", "activity increase (activation)": "-40.9% (inactive)"}
{"smiles": "C/C(=N\\NC(=O)CC#N)c1cc2ccc(O)cc2oc1=O", "activity increase (activation)": "-67.1% (inactive)"}
{"smiles": "CN1CCCC1CCNc1ccc2c(=O)c3ccccc3oc2c1", "note": "(configuration not stated)", "activity increase (activation)": "-115% (inactive)"}
{"smiles": "CCCc1cc(=O)oc2c(CN(CC)CC)c(O)c(Cl)cc12", "activity increase (activation)": "-58.6% (inactive)"}
{"smiles": "CCCNC(=O)N(C)C[C@@H]1Oc2ncc(-c3ccncc3)cc2C(=O)N([C@H](C)CO)C[C@@H]1C", "activity increase (activation)": "-31.8% (inactive)"}
{"smiles": "Cc1c(O)ccc2cc(S(=O)(=O)c3ccccc3)c(=O)oc12", "activity increase (activation)": "-94% (inactive)"}
{"smiles": "CCN(CC)Cc1c(O)ccc2cc(-c3nc4ccccc4n3C)c(=O)oc12", "activity increase (activation)": "-105% (inactive)"}
{"smiles": "Cc1cc(N(C)Cc2ccccc2)nc2cc(O)ccc12", "activity increase (activation)": "-54% (inactive)"}
{"smiles": "CC1CCCC(C)N1CCCNC(=O)c1cc2c(s1)-c1ccccc1OC2", "note": "(configuration not stated)", "activity increase (activation)": "-45.6% (inactive)"}
{"smiles": "CN1c2ccc(-c3ccc(C#N)cc3)cc2[C@@H]2[C@@H](CCN2C(=O)CC2CC2)[C@@H]1CO", "activity increase (activation)": "-8.63% (inactive)"}
{"smiles": "C[C@@H]1CN([C@@H](C)CO)C(=O)c2cccc(NC(=O)Nc3ccc(C(F)(F)F)cc3)c2O[C@@H]1CN(C)C", "activity increase (activation)": "30.6% (inactive)"}
{"smiles": "CCc1c(C)c2cc(Cl)c(O)c(CN(CC)CC)c2oc1=O", "activity increase (activation)": "-62.3% (inactive)"}
